Experimental data published in patent US5861405A, “S-substituted 1,3,7-trialkyl-xanthine derivatives” (priority 1994, dated 1999).
Where “and” joins values, the source holds several entries; their conditions need not be identical. Identical values can stand only once. Like-named read-outs stand apart in the source and are kept apart here.

Experiments:
[1] = target: T1, rat A1 cortical receptors (Rattus norvegicus, UniProt P25099); experiment: Radioligand binding, [3H]N6-phenylisopropyladenosine ([3H]PIA), rat cortical A1 receptors; details: for Ki: vs [3H]PIA (1 nM), read-out: Ki (A1); for inhibition at 10 µM: 1.5 h, at 10^-5, vs [3H]PIA, read-out: Percent displacement of specific binding (A1)
T1 construct: Rat cerebral cortical membranes and striatal membranes were prepared; from tissue; host or cells: rat cerebral cortex membranes
T1 sequence (P25099 1-326): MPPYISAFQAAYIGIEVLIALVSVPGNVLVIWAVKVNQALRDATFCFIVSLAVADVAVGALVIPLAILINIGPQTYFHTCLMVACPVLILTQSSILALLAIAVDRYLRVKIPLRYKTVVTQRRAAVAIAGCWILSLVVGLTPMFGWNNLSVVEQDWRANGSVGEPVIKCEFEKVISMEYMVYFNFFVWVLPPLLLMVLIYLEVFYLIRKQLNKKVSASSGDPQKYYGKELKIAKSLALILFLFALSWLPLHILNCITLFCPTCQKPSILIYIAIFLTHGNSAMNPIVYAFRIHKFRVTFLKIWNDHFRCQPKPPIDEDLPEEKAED
Experimental: (§1) The 1,3,7-trialkyl-8-substituted xanthine compounds of the present invention were tested in a radioligand binding assay for affinity at adenosine receptors in rat brain membranes.
The final concentration of DMSO in the assay medium was generally 2%.
Membranes (~100 μg protein per tube) were incubated for 1.5 h at 37° C. in a total volume of 0.5 ml of 50 mM Tris hydrochloride, at pH 7.4. Test drugs were dissolved in DMSO and added in 10 μl aliquots, resulting in a final DMSO concentration of 2%. Bound and free radioligand were separated by addition of 3 ml of a buffer containing 50 mM Tris hydrochloride, pH 7.4, at 5° C., followed by vacuum filtration using a Brandel Cell Harvester (Brandel, Gaithersburg, Md.) and a Whatman GF/B glass fiber filter with additional washes totaling 9 ml of buffer. Non-specific binding was determined with 10 μM 2-chloroadenosine.
(§2) At least six different concentrations spanning three orders of magnitude, adjusted appropriately for the IC50 of each compound, were used.

[2] = target: rat striatal A2a receptors (Rattus norvegicus, UniProt P30543); experiment: Radioligand binding, [3H]CGS 21680, rat striatal A2a receptors; parameters: Rat cerebral cortical membranes and striatal membranes were prepared; from tissue; host or cells: rat striatal membranes
Experimental: as §1
The stock solutions were diluted with DMSO to a concentration of ≥0.1 mM prior to adding to the aqueous medium. The final concentration of DMSO in the assay medium was generally 2%.
Test drugs were dissolved in DMSO and added in 10 μl aliquots, resulting in a final DMSO concentration of 2%. Non-specific binding was defined using 20 μM 2-chloroadenosine. Filtration was carried out using a Brandel Cell Harvester, as above, using Tris HCl/MgCl2 as the washing buffer.
as §2

[3] = Table IV, vs [3H]CGS21680 (5 nM), read-out: Ki (A2)
[4] = Table I, vs [3H]CGS21680 (5 nM), rat striatal A2 receptors, read-out: Ki (A2a)
[5] = vs [3H]CGS 21680, read-out: Ki value / affinity at A2 receptors
[6] = Table III, vs [3H]CGS21680 (5 nM), read-out: Ki (A2)

rat striatal A2a receptors, sequence (P30543 whole entry): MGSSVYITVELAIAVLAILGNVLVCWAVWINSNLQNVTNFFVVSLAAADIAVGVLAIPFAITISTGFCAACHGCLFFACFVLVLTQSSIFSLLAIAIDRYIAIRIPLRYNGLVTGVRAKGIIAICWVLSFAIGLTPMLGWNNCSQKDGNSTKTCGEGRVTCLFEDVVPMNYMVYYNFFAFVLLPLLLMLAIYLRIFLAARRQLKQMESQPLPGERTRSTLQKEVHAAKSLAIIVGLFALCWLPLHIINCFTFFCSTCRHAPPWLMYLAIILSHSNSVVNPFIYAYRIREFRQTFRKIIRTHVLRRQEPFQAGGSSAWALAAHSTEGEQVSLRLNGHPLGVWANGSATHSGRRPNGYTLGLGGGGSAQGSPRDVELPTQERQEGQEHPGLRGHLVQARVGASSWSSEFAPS

Compound | Ki ([1]; Table I, rat A1 receptors) [nM] | A1/A2a ratio ([2]; Table I, ratio of Ki values) | Ki [2, 4] [nM] | further results
COc1cccc2cc(-c3nc4c([nH]3)c(=O)n(C)c(=O)n4C)oc12 [Compound 58a] |  |  |  | Ki ([1]; Table IV): 1700 nM; A1/A2 ratio ([2]; Table IV): 0.5; Ki [2, 3]: 3900 nM
COc1cc(/C=C/c2nc3c([nH]2)c(=O)n(C)c(=O)n3C)cc(OC)c1 [Compound 33a, 1,3-Dimethyl-8-(3,5-dimethoxystyryl)xanthine] | 3040 | 25 | 120 ± 36 | 
COc1ccc(/C=C/c2nc3c([nH]2)c(=O)n(C)c(=O)n3C)cc1 [Compound 29a, 1,3-Dimethyl-8-(4-methoxystyryl)xanthine] | 858 ± 320 | 1.8 | 472 ± 132 | 
CCCn1c(=O)c2[nH]c(/C=C/c3cc(OC)cc(OC)c3)nc2n(CCC)c1=O [Compound 53a] | 632 ± 152 | 3.0 | 210 ± 140 | 
COc1cccc(/C=C/c2nc3c([nH]2)c(=O)n(C)c(=O)n3C)c1 [Compound 19a] | 1830 | 4.8 | 378 ± 155 | 
Cn1c(=O)c2c(nc(CCc3cccc(N)c3)n2C)n(C)c1=O [Compound 57, 1,3,7-Trimethyl-8-[2-(3-aminophenyl)ethyl]xanthine] |  |  |  | inhibition at 10 µM [1]: 15%; fold less potent at A2 receptors than 22b [2]: ~ 300 fold; Ki [2, 3]: 18000 nM
CCCn1c(=O)c2c(nc(/C=C/c3cccc(Cl)c3)n2C)n(CCC)c1=O [Compound 51b] | 874 ± 222 |  |  | 
COc1cccc(/C=C/c2nc3c(c(=O)n(C)c(=O)n3C)n2C)c1 [Compound 19b] | 5430 | 64 | 84.8 ± 24 | Ki [2, 5]: 85 nM
CC(=O)Nc1cccc(/C=C/c2nc3c(c(=O)n(C)c(=O)n3C)n2C)c1 [Compound 23, 1,3,7-Trimethyl-8-(3-acetylaminostyryl)xanthine] | 9470 | 240 | 39 ± 21 | Ki [2, 5]: 39 nM and ≤ 50 nM
Cn1c(=O)c2c(nc(/C=C/c3cc(F)cc(F)c3)n2C)n(C)c1=O [Compound 34b] | 14800 | 230 | 65 ± 9 | 
COc1ccc(/C=C/c2nc3c([nH]2)c(=O)n(C)c(=O)n3C)cc1OC [Compound 32a, 1,3-Dimethyl-8-(3,4-dimethoxystyryl)xanthine] | 5340 |  | 1100 | A1/A2a ratio [2]: 48
Cn1c(=O)c2[nH]c(/C=C/c3cccc(O)c3)nc2n(C)c1=O [Compound 18] | 702 ± 40 | 2.4 | 303 ± 55 | potency or selectivity in binding, in words ([2]; rat A1 and A2 binding): equipotent with the methoxy compound, 19b, at A2 -receptors and more potent at A1 -receptors
CCCn1c(=O)c2c(nc(/C=C/c3cc(OC)c(OC)cc3OC)n2C)n(CCC)c1=O [Compound 56b] | 689 ± 239 |  | 327 ± 52 | A1/A2a ratio ([2]; rat, brain membranes): 2.1
Cn1c(=O)c2[nH]c(/C=C/c3cc(F)cc(F)c3)nc2n(C)c1=O [Compound 34a] | 2330 | 6.4 | 366 ± 77 | 
CN(C)c1ccc(/C=C/c2nc3c([nH]2)c(=O)n(C)c(=O)n3C)cc1 [Compound 30a, 1,3-Dimethyl-8-(4-dimethylaminostyryl)xanthine] | 3030 | 0.24 | 12800 | 
COc1cc(/C=C/c2nc3c(c(=O)n(C)c(=O)n3C)n2CCO)cc(OC)c1OC [Compound 44d] |  |  |  | inhibition at 10 µM [1]: 26 ± 9%; inhibition at 10 µM ([2]; 1 h, at 10^-5, vs [3H]CGS21680, read-out: Percent displacement of specific binding (A2a)): 22%
Cn1c(=O)c2c(nc(/C=C/c3cccc(I)c3)n2C)n(C)c1=O [Compound 28c] | 2370 | 61 | 38.6 ± 12.5 | 
Cn1c(=O)c2[nH]c(/C=C/c3cccc(F)c3)nc2n(C)c1=O [Compound 27a] | 2720 | 5.3 | 516 ± 99 | 

Compound | Ki ([1]; Table I, rat A1 receptors) [nM] | A1/A2a ratio ([2]; Table I, ratio of Ki values) | Ki [2, 4] [nM] | further results
CCCn1c(=O)c2[nH]c(/C=C/c3cc(F)cc(F)c3)nc2n(CCC)c1=O [Compound 54a] | 146 ± 25 | 0.42 | 346 ± 97 | 
COc1cc(/C=C/c2nc3c(c(=O)n(C)c(=O)n3C)n2C)cc(OC)c1OCCCCNC(=O)OC(C)(C)C [Compound 39, 1,3,7-Trimethyl-8-[3,5-dimethoxy-4-[4-(tert-butyloxycarbonylamino)butyloxy]styryl]xanthine] | 11000 | 42 | 265 ± 105 | 
CCC/C=C/c1nc2c(c(=O)n(C)c(=O)n2C)n1C [n-propyl(Rβ = H)] |  |  |  | Ki ([1]; Table III): 6000 nM; A1/A2 ratio ([2]; Table III): 3.8; Ki [2, 6]: 1600 nM
COc1cccc2cc(-c3nc4c(c(=O)n(C)c(=O)n4C)n3C)oc12 [Compound 58b] |  |  |  | Ki [2, 3]: 4740 nM
Cn1c(=O)c2[nH]c(/C=C/c3cccc(C(F)(F)F)c3)nc2n(C)c1=O [Compound 20a, 1,3-Dimethyl-8-(3-trifluoromethylstyryl)xanthine] | 881 ± 251 | 2.6 | 343 ± 58 | 
CCn1c(=O)c2[nH]c(/C=C/c3cc(OC)c(OC)c(OC)c3)nc2n(CC)c1=O [Compound 45a] | 852 ± 277 | 3.2 | 269 ± 7 | 
COc1cccc(/C=C/c2nc3c([nH]2)c(=O)n(C)c(=O)n3C)c1OC [Compound 31a, 1,3-Dimethyl-8-(2,3-dimethoxystyryl)xanthine] | 1600 | 2.7 | 600 ± 204 | 
Cn1c(=O)c2c(nc(/C=C/C(=O)OC(C)(C)C)n2C)n(C)c1=O [C(O)OC(CH3)3 (Rβ = H), 8-(trans-2-tert-Butyloxycarbonylvinyl)-1,3,7-trimethylxanthine] |  |  |  | Ki ([1]; Table III): 18000 nM; A1/A2 ratio ([2]; Table III): 31; Ki [2, 6]: 590 nM
COc1ccccc1/C=C/c1nc2c(c(=O)n(C)c(=O)n2C)n1C [Compound 17b, 1,3,7-Trimethyl-8-(2-methoxystyryl)xanthine] | 4760 | 18 | 267 ± 84 | 
Cn1c(=O)c2[nH]c(/C=C/c3cccc([N+](=O)[O-])c3)nc2n(C)c1=O [Compound 21a, 1,3-Dimethyl-8-(3-nitrostyryl)xanthine] | 1060 | 2.4 | 438 ± 106 | 
C#CCn1c(/C=C/c2cc(OC)c(OC)c(OC)c2)nc2c1c(=O)n(C)c(=O)n2C [Compound 44e] | 4040 | 7.7 | 525 ± 220 | 
C/C(=C\c1nc2c(c(=O)n(C)c(=O)n2C)n1C)c1ccccc1 [phenyl (Rβ = Me)] |  |  |  | Ki ([1]; Table III): 8680 nM; A1/A2 ratio ([2]; Table III): 6; Ki [2, 6]: 1420 nM
CCCn1c(=O)c2[nH]c(/C=C/c3cc(OC)c(OC)cc3OC)nc2n(CCC)c1=O [Compound 56a] | 143 ± 19 | 0.44 | 323 ± 74 | 
CCCn1c(=O)c2c(nc(/C=C/c3cccc(N)c3)n2C)n(CCC)c1=O [Compound 49] | 113 ± 21 | 6.0 | 18.9 ± 5.3 | Ki [2, 5]: ≤ 50 nM
COc1cc(/C=C/c2nc3c(c(=O)n(C)c(=O)n3C)n2CCc2ccccc2)cc(OC)c1OC [Compound 44f] |  |  |  | inhibition at 10 µM [1]: 32 ± 9%
Cn1c(=O)c2c(nc(/C=C/c3ccccc3)n2C)n(C)c1=O [Compound 15b] | 3890 |  |  | 
Cn1c(=O)c2c(nc(/C=C/c3cccc(NC(=O)OC(C)(C)C)c3)n2C)n(C)c1=O [Compound 25, 1,3,7-Trimethyl-8-(3-tert-butyloxycarbonylaminostyryl)xanthine] |  |  | 784 ± 100 | 
CCn1c(=O)c2c(nc(/C=C/c3cc(OC)c(OC)c(OC)c3)n2C)n(CC)c1=O [Compound 45b] | 2790 |  |  | 
